The supplement of paper PMC11061612

Assays:
[1] = system: DMS-114 (Small Cell Lung Carcinoma); experiment: combination Emax (second highest fraction inhibited in the dose matrix, 72 h); higher = more inhibition; extreme values may be limits of the assay
In short: (§1)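 Cell lines in DMEM/F12 or RPMI with 10% FBS were plated in 1536-well plates, held 24 hours at 37°C, 5% CO2, then given two-drug dose matrices for 72 hours (DMSO typically 0.2%). Viability was read by CellTiter-Glo 2.0 luminescence and scaled as inhibition from 0 (vehicle wells) to 1 (blank wells). Combination Emax is the second-highest inhibition in the matrix; Bliss excess is observed combination effect minus expected EA + EB − EA·EB, EA and EB being single-agent effects.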

[2] = system: COR-L279 (Small Cell Lung Carcinoma); experiment: as above
In short: as §1

[3] = system: VMRC-RCZ (Kidney Carcinoma); experiment: as above
In short: as §1

[4] = system: OCI-AML3 (Acute Myeloid Leukemia); experiment: as above
In short: as §1

[5] = system: KYSE-270 (Esophageal Squamous Cell Carcinoma); experiment: as above
In short: as §1

NCI-H2731 (Mesothelioma) = experiment: as above
In short: as §1

SJSA-1 (Osteosarcoma) = experiment: as above
In short: as §1

[6] = system: CW-2 (Colorectal Carcinoma); experiment: as above
In short: as §1

[7] = system: NCCIT (Other Solid Carcinomas); experiment: as above
In short: as §1

[8] = system: MN-60 (B-Lymphoblastic Leukemia); experiment: as above
In short: as §1

[9] = system: NCI-H520 (Squamous Cell Lung Carcinoma); experiment: as above
In short: as §1

[10] = system: NCI-H929 (Plasma Cell Myeloma); experiment: as above
In short: as §1

M059J (Glioblastoma) = experiment: as above
In short: as §1

[11] = system: ST486 (Burkitt's Lymphoma); experiment: as above
In short: as §1

[12] = system: KP-3 (Pancreatic Carcinoma); experiment: as above
In short: as §1

[13] = system: NCI-H526 (Small Cell Lung Carcinoma); experiment: as above
In short: as §1

[14] = system: SK-GT-4 (Esophageal Adenocarcinoma); experiment: as above
In short: as §1

[15] = system: T-T (Esophageal Squamous Cell Carcinoma); experiment: as above
In short: as §1

[16] = system: MOG-G-CCM (Low Grade Glioma); experiment: as above
In short: as §1

[17] = system: OCI-AML3 (Acute Myeloid Leukemia); experiment: Bliss excess, mean over the matrix (fraction); higher = more synergy
In short: as §1
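Wherever Bliss excess, mean over the matrix is given: after 72 h of two-drug dosing.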

Row | SMILES | combination Emax [1] | combination Emax [2] | combination Emax [3] | combination Emax [4] | combination Emax [5] | combination Emax (NCI-H2731 (Mesothelioma)) | combination Emax (SJSA-1 (Osteosarcoma)) | combination Emax [6] | combination Emax [7] | combination Emax [8] | combination Emax [9] | combination Emax [10] | combination Emax (M059J (Glioblastoma)) | combination Emax [11] | combination Emax [12] | combination Emax [13] | combination Emax [14] | combination Emax [15] | combination Emax [16] | Bliss excess [17]
1 | CS(=O)(=O)CCNCc1ccc(-c2ccc3ncnc(Nc4ccc(OCc5cccc(F)c5)c(Cl)c4)c3c2)o1 [Lapatinib] + NC1(c2ccc(-c3nc4ccn5c(=O)[nH]nc5c4cc3-c3ccccc3)cc2)CCC1 [MK-2206] (first compound max 10 µM, 7x7, partner max 10 µM) | 0.893 | 0.978 | 0.408 | 0.683 | 0.913 | 0.894 | 0.897 | 0.611 | 0.883 | 0.904 | 0.922 | 1 | 0.756 | 0.908 | 0.205 | 0.864 | 0.7 | 0.928 | 0.523 | 0.0739
2 | C=CCn1c(=O)c2cnc(Nc3ccc(N4CCN(C)CC4)cc3)nc2n1-c1cccc(C(C)(C)O)n1 [AZD1775] + CCc1c2c(nc3ccc(O)cc13)-c1cc3c(c(=O)n1C2)COC(=O)[C@]3(O)CC [SN-38] (first compound max 1 µM, partner max 0.3 µM) | 0.655 | 1 | 0.462 | 0.922 | 0.981 | 0.496 | 0.706 | 0.625 | 0.841 | 0.818 | 0.808 | 0.927 | 0.891 | 0.997 | 0.397 | 1 | 0.486 | 0.776 | 0.703 | -0.103
3 | C[C@@H](Nc1cc(F)cc(F)c1)c1cc(C(=O)N(C)C)cc2c(=O)cc(N3CCOCC3)oc12 [AZD8186] + CC(=O)c1c(C)c2cnc(Nc3ccc(N4CCNCC4)cn3)nc2n(C2CCCC2)c1=O [Palbociclib] (first compound max 10 µM, 7x7, partner max 10 µM) | 0.468 | 0.909 | 0.42 | 0.525 | 0.311 | 0.233 | 0.376 | 0.374 | 0.542 | 0.502 | 0.688 | 0.99 | 0.337 | 0.813 | 0.283 | 0.081 | 0.422 | 0.315 | 0.519 | 0.0401
4 | CN(CCO)CC[C@H](CSc1ccccc1)Nc1ccc(S(=O)(=O)NC(=O)c2ccc(N3CCC([C@@H](O)c4ccccc4-c4ccc(Cl)cc4)CC3)cc2)cc1S(=O)(=O)C(F)(F)F [AZD4320] + CC(=O)O[C@H]1C(=O)[C@@]2(C)[C@H]([C@H](OC(=O)c3ccccc3)[C@]3(O)C[C@H](OC(=O)[C@H](O)[C@@H](NC(=O)c4ccccc4)c4ccccc4)C(C)=C1C3(C)C)[C@]1(OC(C)=O)CO[C@@H]1C[C@@H]2O [Paclitaxel] (first compound max 1 µM, 7x7, partner max 3 µM) | 0.879 | 1 | 0.693 | 1 | 0.913 | 0.932 | 0.967 | 0.608 | 0.989 | 0.546 | 0.944 | 0.926 | 0.974 | 1 | 0.8 | 1 | 0.894 | 0.92 | 0.996 | 0.007
5 | O=C(c1cc(Cc2n[nH]c(=O)c3ccccc23)ccc1F)N1CCN(C(=O)C2CC2)CC1 [Olaparib] + COc1nnc2ccc(N3CCC(c4ccc(OCCN5CCN(C)C(=O)[C@H]5C)cc4)CC3)nn12 [AZD5153] (first compound max 10 µM, 7x7, partner max 1 µM) | 0.514 | 0.953 | 0.248 | 1 | 0.493 | 0.362 | 0.539 | 0.48 | 0.66 | 0.733 | 0.591 | 0.911 | 0.718 | 0.897 | 0.125 | 0.926 | 0.426 | 0.48 | 0.51 | -0.0369
6 | N#Cc1cnc(Nc2cc(NC[C@H]3CNCCO3)c(C(F)(F)F)cn2)cn1 [SRA737] + O=c1[nH]cc(F)c(=O)[nH]1 [5-Fluorouracil] (first compound max 10 µM, 7x7, partner max 20 µM) | 0 | 0.821 | 0.354 | 0.922 | 0.99 | 0.172 | 0.403 | 0.403 | 0.458 | 0.436 | 0.588 | 0.768 | 0.315 | 0.928 | 0.307 | 0.855 | 0.407 | 0.384 | 0.419 | 0.0646
7 | Cc1nc(-c2cn3c(n2)-c2ccc(-c4cnn(C(C)(C)C(N)=O)c4)cc2OCC3)n(C(C)C)n1 [Taselisib] + O=C(Nc1ccc2[nH]nc(-c3ccncc3)c2c1)[C@@H]1CCN(CC(=O)N2CCN(c3ccc(-c4ncccn4)cc3)CC2)C1 [SCH772984] (first compound max 10 µM, 7x7, partner max 5 µM) | 0.732 | 0.835 | 0.361 | 0.941 | 0.822 | 0.553 | 0.69 | 0.546 | 0.693 | 0.31 | 0.638 | 1 | 0.564 | 0.654 | 0.354 | 0.189 | 0.924 | 0.853 | 0.577 | 0.0661
8 | CC1(C)CCC(CN2CCN(c3ccc(C(=O)NS(=O)(=O)c4ccc(NCC5CCOCC5)c([N+](=O)[O-])c4)c(Oc4cnc5[nH]ccc5c4)c3)CC2)=C(c2ccc(Cl)cc2)C1 [Venetoclax] + CS(=O)(=O)CCNCc1ccc(-c2ccc3ncnc(Nc4ccc(OCc5cccc(F)c5)c(Cl)c4)c3c2)o1 [Lapatinib] (first compound max 1 µM, 7x7, partner max 10 µM) | 0.226 | 0.911 | 0.155 | 0.397 | 0.477 | 0.285 | 0.219 | 0.379 | 0.209 | 0.111 | 0.296 | 0.207 | 0.365 | 0.524 | 0.165 | 0.727 | 0.341 | 0.794 | 0.166 | 0.01
9 | O=C(c1cc(Cc2n[nH]c(=O)c3ccccc23)ccc1F)N1CCN(C(=O)C2CC2)CC1 [Olaparib] + Cc1c2c(nn1C)CSCc1cc(n(C)n1)CSc1cc(c3ccccc3c1)OCCCc1c(C(=O)O)n(C)c3c-2c(Cl)ccc13 [AZD5991] (first compound max 10 µM, 7x7, partner max 1 µM) | 0.55 | 0.961 | 0.0573 | 0.98 | 0.625 | 0.0516 | 0.0831 | 0.101 | 0.527 | 0.22 | 0.104 | 1 | 0.254 | 0.558 | 0.028 | 0.805 | 0.0608 | 0.801 | 0.222 | 0.0224
10 | C[C@@H](Nc1cc(F)cc(F)c1)c1cc(C(=O)N(C)C)cc2c(=O)cc(N3CCOCC3)oc12 [AZD8186] + C1CN(CCC1(C(=O)N[C@@H](CCO)C2=CC=C(C=C2)Cl)N)C3=NC=NC4=C3C=CN4 [AZD5363] (first compound max 10 µM, 7x7, partner max 10 µM) | 0.472 | 0.679 | 0.386 | 0.428 | 0.347 | 0.305 | 0.426 | 0.275 | 0.499 | 0.193 | 0.564 | 1 | 0.408 | 0.151 | 0.312 | 0.147 | 0.457 | 0.301 | 0.581 | 0.031
11 | O=C(c1cc(Cc2n[nH]c(=O)c3ccccc23)ccc1F)N1CCN(C(=O)C2CC2)CC1 [Olaparib] + CN(CC[C@H](CSC1=CC=CC=C1)NC2=C(C=C(C=C2)S(=O)(=O)NC(=O)C3=CC=C(C=C3)N4CCC(CC4)[C@H](C5=CC=CC=C5C6=CC=C(C=C6)Cl)O)S(=O)(=O)C(F)(F)F)CCO [AZD4320] (first compound max 10 µM, 7x7, partner max 1 µM) | 0.214 | 0.992 | 0.0911 | 0.548 | 0.383 | 0.0908 | 0.133 | 0.113 | 0.198 | 0.25 | 0.125 | 0.142 | 0.321 | 0.754 | 0.104 | 0.916 | 0.154 | 0.233 | 0.445 | 0.057
12 | C[C@@H](Oc1cc(-c2cnn(C3CCNCC3)c2)cnc1N)c1c(Cl)ccc(F)c1Cl [Crizotinib] + Cn1cnc2c(F)c(Nc3ccc(Br)cc3Cl)c(C(=O)NOCCO)cc21 [Selumetinib] (first compound max 10 µM, 7x7, partner max 10 µM) | 0.527 | 0.755 | 0.174 | 0.997 | 0.441 | 0.519 | 0.82 | 0.37 | 0.4 | 0.38 | 0.616 | 1 | 0.257 | 0.936 | 0.208 | 0.508 | 0.461 | 0.759 | 0.374 | -0.0401
